Data set [1] addresses T1, Na^+ /H^+ exchanger of rabbit erythrocytes (Oryctolagus cuniculus, UniProt P23791).
T1 construct: determine the Na^+ influx into the erythrocytes; endogenous in cells; host or cells: erythrocytes of cholesterol-fed New Zealand White rabbits (Ivanovas)
As to the kind of experiment: Inhibition of the Na^+ /H^+ exchanger of rabbit erythrocytes (amiloride-sensitive sodium influx, flame photometry). The class given is cell-based, rabbit (New Zealand White). The note with it: pH 7.4, 37° C. An excerpt:
Inhibition of the Na^+ /H^+ exchanger of rabbit erythrocytes:
New Zealand White rabbits (Ivanovas) were given a standard diet containing 2% cholesterol for six weeks in order to activate Na^+ /H^+ exchange and thus to be able to use flame photometry to determine the Na^+ influx into the erythrocytes via […]. The blood was removed from the aural arteries and rendered incoagulable by the addition of 25 IU of potassium heparin. One part of each sample was used for the duplicate determination of the hematocrit by centrifugation. Aliquots of in each case 100 μl were employed for measuring the initial content of Na^+ in the erythrocytes.
In order to determine the amiloride-sensitive sodium influx, 100 μl of each blood sample were in each case incubated, at pH 7.4 and 37° C., in 5 ml of a hyperosmolar salt/sucrose medium ([…]: 140 NaCl, 3 KCl, 150 sucrose, 0.1 ouabain, 20 tris(hydroxymethyl)aminomethane). The erythrocytes were then washed three times with ice cold MgCl2 /ouabain solution ([…]: 112 MgCl2, 0.1 ouabain) and hemolyzed in 2.0 ml of distilled water. The intracellular content of sodium was determined by flame photometry.
The nett influx of Na^+ was calculated from the difference between the initial sodium values and the sodium content of the erythrocytes following incubation. The amilorideinhibitable sodium influx was given by the difference in the sodium content of the erythrocytes following incubation with and without 3×10-4 mol/l amiloride. The same procedure was also used in the case of the compounds according to the invention.

For data set [2] the following is noted: cited from earlier work.
The next data set deals with rat hearts. The note with it: isolated rat hearts, cited from earlier work.

Counter-ions that a name gives are not always drawn.

T1 sequence (P23791 whole entry): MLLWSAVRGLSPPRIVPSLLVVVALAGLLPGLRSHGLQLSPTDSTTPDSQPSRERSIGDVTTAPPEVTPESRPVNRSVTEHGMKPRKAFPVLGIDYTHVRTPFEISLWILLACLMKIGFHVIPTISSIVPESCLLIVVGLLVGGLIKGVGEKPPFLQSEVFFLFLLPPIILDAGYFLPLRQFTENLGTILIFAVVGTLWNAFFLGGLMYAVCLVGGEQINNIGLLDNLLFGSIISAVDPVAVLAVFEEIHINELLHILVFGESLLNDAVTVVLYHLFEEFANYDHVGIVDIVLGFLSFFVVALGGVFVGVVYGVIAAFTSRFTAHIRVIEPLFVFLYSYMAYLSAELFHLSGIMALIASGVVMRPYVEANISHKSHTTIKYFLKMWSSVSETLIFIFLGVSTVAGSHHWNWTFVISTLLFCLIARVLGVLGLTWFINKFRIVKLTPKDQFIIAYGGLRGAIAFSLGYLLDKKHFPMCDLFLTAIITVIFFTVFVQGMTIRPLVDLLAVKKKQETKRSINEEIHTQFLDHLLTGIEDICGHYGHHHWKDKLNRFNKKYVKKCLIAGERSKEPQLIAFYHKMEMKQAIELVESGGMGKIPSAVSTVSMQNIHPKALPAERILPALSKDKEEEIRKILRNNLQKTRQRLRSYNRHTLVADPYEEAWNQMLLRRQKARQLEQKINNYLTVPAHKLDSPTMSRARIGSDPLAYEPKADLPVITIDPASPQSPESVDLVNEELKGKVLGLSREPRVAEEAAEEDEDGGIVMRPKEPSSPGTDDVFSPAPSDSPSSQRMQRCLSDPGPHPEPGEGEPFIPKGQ

The term IC50 denotes the concentration that inhibits the measured activity by half. Turning to `NC(N)=NC(=O)c1ccc2ncccc2c1` [Example 3, Quinolin-6-carboguanidide], the IC50 in data set [1] fell in the range of 3 to 5 µM.

As to `NC(N)=NC(=O)c1nc(Cl)c(N)nc1N` [amiloride], the antiarrhythmic effect entry in data set [2] (Circulation 79, 1257-63 (1989)) was “only weakly expressed”. Also, the “accompanying effects undesirable when treating cardiac arrhythmias” value in data set [2] (side effects) was “hypotensive and saluretic effects”. Also, the “suppression of artificially induced ventricular fibrillation” value in the data set with rat hearts (Eur. Heart J. 9 (suppl. 1): 167 (1988)) is “completely suppress artificially induced ventricular fibrillation”.

As to `Cc1nc2ccc(Cl)cc2cc1C(=O)N=C(N)N` [Example 8, 6-Chloro-2-methylquinoline-3-carboguanidide hydrochloride], in data set [1], the IC50 was less than 1 µM.

Take `CCN(c1nc(N)c(C(=O)N=C(N)N)nc1Cl)C(C)C` [ethylisopropyl amiloride, Ethylisopropylamiloride]: the “potency relative to amiloride against artificially induced ventricular fibrillation” value in the data set on rat hearts (compared with amiloride) is reported as “even more potent than amiloride”.

In turn, `NC(N)=NC(=O)c1ccc2ccccc2n1` [Example 1, Quinoline-2-carboguanidide Dihydrochloride] came in with an IC50 in data set [1] of 2 to 3 µM.

The compound `NC(N)=NC(=O)c1ccc2cnccc2c1` [Example 4, Isoquinoline-6-carboguanidide] gave an IC50 in data set [1] of 10 µM.

The compound `NC(N)=NC(=O)c1cnc2ccccc2c1` [Example 2, Quinoline-3-carboguanidide Dihydrochloride] yielded an IC50 in data set [1] of 1.2 µM.

The values above are taken from patent US6093729A, “Substituted bicyclic heteroaroylguanidines, a process for their preparation, their use as a medicament or a diagnostic agent, and a medicament containing them” (priority 1994, dated 2000).
